Reference: paper PMC5863496, “Mesobuthus Venom-Derived Antimicrobial Peptides Possess Intrinsic Multifunctionality and Differential Potential as Drugs” (Frontiers in Microbiology, 2018)
Ends that are not written are not given here.

What was measured:
S. aureus PRSA P1383 = test: Killing kinetics; format: cell-based, Staphylococcus aureus; details: 5x CL (20 μg/ml)
Protocol: The in vitro killing curve for MeuTXKβ1 was determined against the bacterium S. aureus PRSA P1383. For the assay, a single fresh colony was inoculated into LB (Luria-Bertani) medium (10 g tryptone, 5 g yeast extract, and 5 g NaCl in 1 l of H2O) and incubated at 37°C until OD600 of 0.2. The initial concentration used was 4 × 10^7 cells/ml. Samples for colony counts were taken at time 0, 5, 10, 15, 20, 30, and 60 min after addition of peptides. Results are given as colony-forming units (CFUs) per milliliter.

[1] = system: penicillin-resistant Staphylococcus aureus P1383; test: Inhibition-zone assay (CL); format: cell-based; details: concentration used in killing kinetics and membrane permeation
Protocol: (§1) The antimicrobial activity of seven peptides, including MeuFSPL-1, MeuFSPL-2, Marmelittin, Melittin, Meucin-22, Marcin-22, and MeuTXKβ1, was evaluated by the inhibition-zone assay previously described in our studies (Hultmark, [1998]; Zhu et al., [2012a]; Zhu and Gao, [2014]). Temperatures used were 30 or 37°C for bacteria or 28°C for fungi. Media used were Luria-Bertani (LB) Broth (10 g tryptone, 5 g yeast extract, and 5 g NaCl in 1 l of water) or Nutrient Broth (10 g peptone, 5 g beef extract powder, and 5 g NaCl in 1 l of water) or GYM(Isp2) (4 g yeast extract, 10 g malt extract, 4 g glucose, 2 g CaCO3 in 1 l of water) for bacteria or Potato Dextrose Broth (200 g patato and 20 g glucose in 1 l of water) for fungi. To make plates, 10 μl of microbial culture (~2 × 10^6 bacterial cells or fungal spores/ml) were mixed in 6 ml of medium containing 0.8% agar and poured into Peri dishes of 9.0 cm diameter. Wells with a diameter of 2 mm were punched into the medium, filled with 2 μl of sample each well. In this assay, three different doses of peptides were applied to three independent wells in one standard bacterial plate. After incubation overnight, inhibition zones were measured and used to calculate lethal concentrations (CL), a concentration just sufficient to inhibit bacterial growth (Hultmark, [1998]; Gao et al., [2009]). CL values are calculated from a plot of d^2 against log n, where d is the diameter (in cm) and n is the amount of sample applied in the well (in nmol). The plot is linear and thus CL can be calculated from the slope (k) and the intercept (m) of this plot. The formula used here is CL = 2.93/ak10^m/k, where “a” is the thickness of the bacterial plate and “CL” is in μM.

Stability in H2O = format: physicochemical; details: 37°C, read-out inhibition zone on S. aureus PRSA P1383 plates
Protocol: (§2) To assess serum stability, peptides were dissolved in H2O or fresh mouse serum for the indicated times at 37°C and their residual activity was measured by the inhibition-zone assay (Hultmark, [1998]).

Serum stability = format: in vitro ADME; details: fresh mouse serum, 37°C, read-out inhibition zone on S. aureus PRSA P1383 plates
Protocol: as §2

[2] = system: Staphylococcus aureus J708; test: Inhibition-zone assay (CL); format: cell-based; details: SA J708, N.A. = no activity at 0.8 nmol peptide each well
Protocol: as §1

[3] = system: methicillin-resistant coagulase-negative Staphylococcus P1369; test: Inhibition-zone assay (CL); format: cell-based; details: MRCNS P1369, N.A. = no activity at 0.8 nmol peptide each well
Protocol: as §1

[4] = system: methicillin-sensitive Staphylococcus aureus CGMCC 1.89; test: Inhibition-zone assay (CL); format: cell-based; details: MSSA CGMCC 1.89, N.A. = no activity at 0.8 nmol peptide each well
Protocol: as §1

[5] = system: Staphylococcus aureus J700; test: Inhibition-zone assay (CL); format: cell-based; details: SA J700, N.A. = no activity at 0.8 nmol peptide each well
Protocol: as §1

[6] = system: Streptococcus mutans ATCC 1.2499; test: Inhibition-zone assay (CL); format: cell-based; details: SM ATCC 1.2499, N.A. = no activity at 0.8 nmol peptide each well
Protocol: as §1

[7] = system: Stenotrophomonas maltophilia CGMCC 1.1788; test: Inhibition-zone assay (CL); format: cell-based; details: SMAL CGMCC 1.1788, N.A. = no activity at 0.8 nmol peptide each well
Protocol: as §1

[8] = system: Streptomyces scabiei CGMCC 4.1765; test: Inhibition-zone assay (CL); format: cell-based; details: SSCA CGMCC 4.1765, N.A. = no activity at 0.8 nmol peptide each well
Protocol: as §1

[9] = system: Staphylococcus warneri ATCC 1.2824; test: Inhibition-zone assay (CL); format: cell-based; details: SW ATCC 1.2824, N.A. = no activity at 0.8 nmol peptide each well
Protocol: as §1

[10] = system: Staphylococcus aureus J698; test: Inhibition-zone assay (CL); format: cell-based; details: SA J698, N.A. = no activity at 0.8 nmol peptide each well
Protocol: as §1

[11] = system: Staphylococcus aureus J706; test: Inhibition-zone assay (CL); format: cell-based; details: SA J706, N.A. = no activity at 0.8 nmol peptide each well
Protocol: as §1

[12] = system: Streptococcus salivarius ATCC 1.2498; test: Inhibition-zone assay (CL); format: cell-based; details: SSAL ATCC 1.2498, N.A. = no activity at 0.8 nmol peptide each well
Protocol: as §1

[13] = system: penicillin-sensitive Staphylococcus epidermidis P1111; test: Inhibition-zone assay (CL); format: cell-based; details: PSSE P1111, N.A. = no activity at 0.8 nmol peptide each well
Protocol: as §1

[14] = system: Staphylococcus aureus J710; test: Inhibition-zone assay (CL); format: cell-based; details: SA J710, N.A. = no activity at 0.8 nmol peptide each well
Protocol: as §1

[15] = system: penicillin-resistant Staphylococcus epidermidis P1389; test: Inhibition-zone assay (CL); format: cell-based; details: PRSE P1389, N.A. = no activity at 0.8 nmol peptide each well
Protocol: as §1

[16] = system: Staphylococcus aureus J685; test: Inhibition-zone assay (CL); format: cell-based; details: SA J685, N.A. = no activity at 0.8 nmol peptide each well
Protocol: as §1

[17] = system: Bacillus subtilis CGMCC 1.2428; test: Inhibition-zone assay (CL); format: cell-based; details: BS CGMCC 1.2428, N.A. = no activity at 0.8 nmol peptide each well
Protocol: as §1

[18] = system: Streptomyces griseus NBRC 13350; test: Inhibition-zone assay (CL); format: cell-based; details: SG NBRC 13350, N.A. = no activity at 0.8 nmol peptide each well
Protocol: as §1

[19] = system: Streptococcus sanguinis ATCC 1.2497; test: Inhibition-zone assay (CL); format: cell-based; details: SSAN ATCC 1.2497, N.A. = no activity at 0.8 nmol peptide each well
Protocol: as §1

[20] = 24 h, three independent experiments

CN[C@H](CC(C)C)C(=O)N[C@H]1C(=O)N[C@@H](CC(N)=O)C(=O)N[C@H]2C(=O)N[C@H]3C(=O)N[C@H](C(=O)N[C@H](C(=O)O)c4cc(O)cc(O)c4-c4cc3ccc4O)[C@H](O)c3ccc(c(Cl)c3)Oc3cc2cc(c3O[C@@H]2O[C@H](CO)[C@@H](O)[C@H](O)[C@H]2O[C@H]2C[C@](C)(N)[C@H](O)[C@H](C)O2)Oc2ccc(cc2Cl)[C@H]1O [vancomycin]
killing rate compared with MeuTXKβ1 (S. aureus PRSA P1383): slower killing rate | 5x CL for P1383 [1]: 20 µg/mL | residual activity after incubation in H2O (Stability in H2O; 6 h): remained its full activity | residual activity after incubation in H2O (Stability in H2O; [20]): completely lose | residual activity after incubation in mouse serum (Serum stability; 6 h): remained its full activity | residual activity after incubation in mouse serum (Serum stability; [20]): completely lose

IFGAIAGLLKNIF-NH2 [MUC-13, reference compound]
Lethal concentration (CL) [2]: 7.54 µM | Lethal concentration (CL) [3]: 33.80 µM | Lethal concentration (CL) [4]: 10.24 µM | Lethal concentration (CL) [5]: 7.54 µM | Lethal concentration (CL) [6]: 10.24 µM | Lethal concentration (CL) [7]: 4.89 µM | Lethal concentration (CL) [8]: 15.07 µM | Lethal concentration (CL) [9]: 6.24 µM | Lethal concentration (CL) [10]: 7.54 µM | Lethal concentration (CL) [11]: 5.67 µM | Lethal concentration (CL) [12]: 7.54 µM | Lethal concentration (CL) [13]: 10.24 µM | Lethal concentration (CL) [14]: 7.10 µM | Lethal concentration (CL) [15]: 24.06 µM | Lethal concentration (CL) [16]: 10.16 µM | Lethal concentration (CL) [17]: 6.24 µM | Lethal concentration (CL) [18]: 53.31 µM | Lethal concentration (CL) [19]: 6.24 µM
